According to PMC5773651, “Customised in vitro model to detect human metabolism-dependent idiosyncratic drug-induced liver injury” (Archives of Toxicology, 2017):
Like-named read-outs stand apart in the source and are kept apart here. Marks after values point to notes of the source that are not given here. Values belong to the compound of their own block, whether it stands above or below them.

Legend:
HepG2 cells [1] = assay: Cell viability (PI), IC50, control HepG2 cells; type: cell-based; conditions: Homo sapiens; control non-transduced HepG2; 24 h; unit inferred, tested range in µM; read-out: IC50 (cell viability), C
[2] = test system: HepG2 cells transduced with AdCYP2E1; assay: Cell viability (PI), IC50, AdCYP2E1-HepG2; type: cell-based; conditions: Homo sapiens, unit inferred, tested range in µM
Experimental: (§1) For subculturing purposes, cells were detached by treatment with 0.25% trypsin/0.02% EDTA at 37 °C. For the adenovirus infection studies, cells were seeded in 96-well plates (5000 cells/well) and adenovirus-containing medium was added 48 h later. After 24 h, cells were transferred to the adenovirus-free medium and cultured for an additional 24-h period prior to the incubations performed with the test chemicals. To optimise the expression of the functional enzymes in the adenovirus-transduced HepG2 (Ad-HepG2) cells, different doses (MOI, multiplicity of infection, defined as plaque formation units per cell) of each adenovirus were tested.
(§2) The drugs included in the study were chosen based on previous information about their hepatotoxicity. Information on the potential mechanisms implicated in the toxicity of each compound and the major enzymes involved in their metabolism is summarised in Table 1. HepG2 or Ad-HepG2 (48 h post-infection) cells were exposed for 24 h to eight concentrations of the tested compounds. Each experimental condition was repeated independently three times (with three wells measured each time). The stock solutions of compounds were prepared in DMSO and were conveniently diluted in the culture medium to obtain the desired final concentrations. The final DMSO concentration in the culture medium was 0.5% (v/v), and the control cultures were treated with the same amount of solvent.
(§3) Following treatments, cells were simultaneously loaded with several fluorescent dyes to measure multiple biomarkers of cell toxicity. […] Information about the probes is summarised in Supplementary Table S2.
(§4) After incubating with dyes, cells were imaged by the Scan^R system (Olympus, Germany). Dyes were excited, and their fluorescence was monitored at the excitation and emission wavelengths at appropriate filter settings. The collected images were analysed using the Scan^R analysis module, which allows the simultaneous quantification of subcellular structures that are stained by different fluorescent probes.

[3] = test system: HepG2 cells transduced with AdCYP2E1; conditions: human, 24 h
Experimental: as §1, §2, §3, §4

[4] = test system: HepG2 cells transduced with AdGSTM1; conditions: human, 24 h
Experimental: as §1, §2, §3, §4

HepG2 cells [5] = conditions: human, 24 h
Experimental: as §1, §2, §3, §4

[6] = test system: HepG2 cells co-transduced with AdCYP2E1 and AdCYP1A2; assay: HCS hepatotoxicity assay (MEC, TR), AdCYP2E1 + AdCYP1A2 HepG2; type: cell-based, human; conditions: 24 h; for MEC Apoptosis / MEC Calcium / MEC MMP / MEC Mitochondrial superoxide / MEC ROS: unit inferred, tested range in mM
Experimental: as §1, §2, §3, §4

[7] = test system: HepG2 cells co-transduced with AdCYP2E1, CYP1A2 and AdGSTM1; assay: HCS hepatotoxicity assay (MEC, TR), AdCYP2E1 + AdCYP1A2 + AdGSTM1 HepG2; type: cell-based, human; conditions: 24 h; for MEC Apoptosis / MEC Calcium / MEC MMP / MEC Mitochondrial superoxide / MEC ROS: unit inferred, tested range in mM
Experimental: as §1, §2, §3, §4

[8] = cited from earlier work; for Bioactivation / Enzyme: major enzyme(s) involved in the bioactivation (denoted as *) or detoxification of the drug: previous information; for Toxicity (mechanisms of toxicity): ref Ashrafian et al. [2007], Donato et al. [2009], Fromenty and Pessayre [1997], Rolo et al. [2000], Tolosa et al. [2012b]; for DILI category: ref Gustafsson et al. ([2014])
[9] = test system: HepG2 cells co-transduced with AdCYP2E1 and AdGSTM1; assay: HCS hepatotoxicity assay (MEC, TR), AdCYP2E1 + AdGSTM1 HepG2; type: cell-based, human; conditions: CYP2E1-10X + GSTM1, 24 h
Experimental: as §1, §2, §3, §4

[10] = test system: HepG2 cells transduced with AdCYP2C9; assay: Cell viability (PI), IC50, AdCYP2C9-HepG2; type: cell-based; conditions: Homo sapiens, unit inferred, tested range in µM
[11] = test system: HepG2 cells transduced with AdCYP2B6; assay: Cell viability (PI), IC50, AdCYP2B6-HepG2; type: cell-based; conditions: Homo sapiens, unit inferred, tested range in µM
Experimental: as §1, §2, §3, §4

[12] = test system: HepG2 cells transduced with AdCYP2B6; assay: HCS hepatotoxicity assay (MEC, TR), AdCYP2B6-HepG2; type: cell-based, human; conditions: 24 h, unit inferred, tested range in mM
Experimental: as §1
The drugs included in the study were chosen based on previous information about their hepatotoxicity. […] Each experimental condition was repeated independently three times (with three wells measured each time). […]
as §4

[13] = ref Atienzar et al. ([2014]), Garside et al. ([2014]), Tolosa et al. ([2012b]); cited from earlier work
Ad-HepG2 and HepG2 cells = type: cell-based, human
Text: Finally, we explored the toxicity of the amoxycillin/clavulanate combination, one of the most commonly implicated agents in severe idiosyncratic liver injury. Unlike other studied drugs, the hepatotoxicity of amoxycillin/clavulanate has not been related to CYP metabolism.

[14] = ADV CYP2E1 x1, 24 h, read-out: IC50 (cell viability), ADV dose x1
[15] = ADV CYP2E1 x4, 24 h, read-out: IC50 (cell viability), ADV dose x4
[16] = ADV CYP2E1 x10, 24 h, read-out: IC50 (cell viability), ADV dose x10
[17] = unit inferred, tested range in mM
[18] = unit not given, tested range in mM

IC50 (HepG2 cells [1]): > 15000 µM
IC50 [2, 14]: > 15000 µM
IC50 [2, 15]: > 15000 µM
IC50 [2, 16]: 10600 µM
concentrations needed to significantly alter ROS generation and calcium levels [3]: 4000 to 6000 µM
MEC Calcium [4]: 10
MEC MMP [4]: 15
MEC Mitochondrial superoxide [4]: 6
MEC ROS [4]: 15
TR [4]: 3.5
MEC Calcium (HepG2 cells [5]): 6
MEC MMP (HepG2 cells [5]): 15
MEC Mitochondrial superoxide (HepG2 cells [5]): 4
MEC ROS (HepG2 cells [5]): 10
TR (HepG2 cells [5]): 3.5
Compound: CC(=O)Nc1ccc(O)cc1 [Acetaminophen]
MEC Apoptosis [4]: 4 µM
MEC Apoptosis (HepG2 cells [5]): 4 µM
MEC Apoptosis ([6]; CYP2E1-1X + CYP1A2-1X): 1 mM
MEC Calcium ([6]; CYP2E1-1X + CYP1A2-1X): 6 mM
MEC MMP ([6]; CYP2E1-1X + CYP1A2-1X): 10 mM
MEC Mitochondrial superoxide ([6]; CYP2E1-1X + CYP1A2-1X): 1 mM
MEC ROS ([6]; CYP2E1-1X + CYP1A2-1X): 6 mM
TR ([6]; CYP2E1-4X + CYP1A2-4X, TR = 100 x Cmax/lowest MEC): 27.8
MEC Apoptosis ([6]; CYP2E1-4X + CYP1A2-4X): 0.5 mM
MEC Calcium ([6]; CYP2E1-4X + CYP1A2-4X): 0.5 mM
MEC MMP ([6]; CYP2E1-4X + CYP1A2-4X): 6 mM
MEC Mitochondrial superoxide ([6]; CYP2E1-4X + CYP1A2-4X): 0.5 mM
MEC ROS ([6]; CYP2E1-4X + CYP1A2-4X): 0.5 mM
concentration that induced significant changes in the ROS generation and calcium levels ([6]; cells co-transduced with AdCYP2E1 and AdCYP1A2, intermediate doses of adenoviruses): 500 µM
TR ([7]; CYP2E1-1X + CYP1A2-1X + GSTM1, TR = 100 x Cmax/lowest MEC): 3.5
MEC Apoptosis ([7]; CYP2E1-1X + CYP1A2-1X + GSTM1): 4 mM
MEC Calcium ([7]; CYP2E1-1X + CYP1A2-1X + GSTM1): 15 mM
MEC MMP ([7]; CYP2E1-1X + CYP1A2-1X + GSTM1): 15 mM
MEC Mitochondrial superoxide ([7]; CYP2E1-1X + CYP1A2-1X + GSTM1): 6 mM
MEC ROS ([7]; CYP2E1-1X + CYP1A2-1X + GSTM1): 15 mM
MEC Apoptosis ([7]; CYP2E1-4X + CYP1A2-4X + GSTM1): 1 mM
MEC Calcium ([7]; CYP2E1-4X + CYP1A2-4X + GSTM1): 6 mM
MEC MMP ([7]; CYP2E1-4X + CYP1A2-4X + GSTM1): 10 mM
MEC Mitochondrial superoxide ([7]; CYP2E1-4X + CYP1A2-4X + GSTM1): 4 mM
MEC ROS ([7]; CYP2E1-4X + CYP1A2-4X + GSTM1): 6 mM
Bioactivation [8]: Yes
Enzyme: major enzyme(s) involved in the bioactivation (denoted as *) or detoxification of the drug [8]: CYP2E1* (CYP1A2*, CYP3A4*) GST
Toxicity (mechanisms of toxicity) [8]: OS, AP
DILI category [8]: DILI reports

IC50 (HepG2 cells [1]): 61500 µM
IC50 [2, 14]: 52900 µM
IC50 [2, 15]: 44500 µM
IC50 [2, 16]: 46600 µM
MEC MMP [3]: >50
MEC Calcium [4]: >50
MEC MMP [4]: >50
MEC Mitochondrial superoxide [4]: >50
MEC ROS [4]: >50
TR [4]: 0.25
MEC Calcium (HepG2 cells [5]): 30
MEC MMP (HepG2 cells [5]): >50
MEC Mitochondrial superoxide (HepG2 cells [5]): 30
MEC ROS (HepG2 cells [5]): >50
TR (HepG2 cells [5]): 0.25
Compound: NNC(=O)c1ccncc1 [Isoniazid]
MEC Apoptosis [4]: 30 µM
MEC Apoptosis (HepG2 cells [5]): 30 µM
TR ([9]; TR = 100 x Cmax/lowest MEC): 0.38
MEC Calcium [9, 17]: 20 mM
MEC Mitochondrial superoxide [9, 17]: 30 mM
MEC ROS [9, 17]: > 50 mM
MEC Apoptosis [9, 18]: 30
MEC MMP [9, 18]: >50
Bioactivation [8]: Yes
Enzyme: major enzyme(s) involved in the bioactivation (denoted as *) or detoxification of the drug [8]: CYP2E1*, GSTM1, NAT2
Toxicity (mechanisms of toxicity) [8]: MI, OS, AP
DILI category [8]: Severe

IC50 (HepG2 cells [1]): 14800 µM
IC50 ([10]; ADV CYP2C99 x1, 24 h, read-out: IC50 (cell viability), ADV dose x1): 14400 µM
IC50 ([10]; ADV CYP2C99 x4, 24 h, read-out: IC50 (cell viability), ADV dose x4): 16000 µM
IC50 ([10]; ADV CYP2C99 x10, 24 h, read-out: IC50 (cell viability), ADV dose x10): 10100 µM
IC50 ([11]; ADV CYP2B6 x1, 24 h, read-out: IC50 (cell viability), ADV dose x1): 13300 µM
IC50 ([11]; ADV CYP2B6 x4, 24 h, read-out: IC50 (cell viability), ADV dose x4): 8600 µM
IC50 ([11]; ADV CYP2B6 x10, 24 h, read-out: IC50 (cell viability), ADV dose x10): 8700 µM
MEC Lipids (HepG2 cells [5]): 6
Compound: CCCC(CCC)C(=O)O [Valproic acid]
MEC ROS ([12]; CYP2B6-4X): 10 mM
MEC ROS ([12]; CYP2B6-10X): 8 mM
Cmax [13]: 166 µM
Bioactivation [8]: Yes
Enzyme: major enzyme(s) involved in the bioactivation (denoted as *) or detoxification of the drug [8]: CYP2B6*, CYP2C9* (CYP2E1*, CYP2A6*)
Toxicity (mechanisms of toxicity) [8]: MI, OS, ST

ROS production (Ad-HepG2 and HepG2 cells): significant increase
Compound: Amoxicillin/clavulanate
